Results taken from patent US20040091855A1, “Method for production of antivirals by use of HIV-derived HR1 peptides, and trimers formed therefrom” (priority 2002, published 2004).

Experiments:
HIV-1 = settings: in vitro infectivity assay
Source text: These assays score for reduction of infectious virus titer employing the indicator cell lines MAGI or the CCR5 expressing derivative cMAGI. Both cell lines exploit the ability of HIV-1 tat to transactivate the expression of a β-galactosidase reporter gene driven by the HIV-LTR. The β-gal reporter has been modified to localize in the nucleus and can be detected with the X-gal substrate as intense nuclear staining within a few days of infection. The number of stained nuclei can thus be interpreted as equal to the number of infectious virions in the challenge inoculum if there is only one round of infection prior to staining. […] The cells were cultured for 2 more days, and then fixed and stained with the X-gal substrate to detect HIV-infected cells. The number of infected cells for each control and peptide dilution was determined with the CCD-imager, and then the IC50 and IC90 were calculated (expressed in μg/ml).

[1] = tested on: trimers (SEQ ID NO:36) and labeled HR2 peptide (SEQ ID NO:33); assay: Fluorescence polarization assay of inhibition of complexing between trimers and labeled HR2 peptide; assay type: binding, HIV-1; settings: read-out: Concentration to inhibit complexing between the trimers and labeled HR2 peptide by 50% (IC50); fluorescein-labeled HR2 peptide 0.2 nM; trimers SEQ ID NO:36 50 nM
Description: In an example of a homogenous assay carried out as a liquid phase-based assay system, a fluorescence polarization assay was used in taking advantage of the high affinity interaction between HR1 and HR2 regions. Into reaction wells of a high throughput plate (>300 reaction wells) was added 20 μl of a solution containing a desired concentration of molecule to be assessed for its ability to bind to trimers employed with the present invention (e.g., formed from synthetic peptide) and either inhibit or disrupt HR1-HR2 binding interactions (“complexing between HR1 and HR2″). […] To each reaction well was then added 10 μl of a solution containing a desired concentration of trimers (formed from synthetic peptide employed with the present invention). […] Fluorescence intensity of polarized light was then measured with a detection system comprising a spectrophotometer, and the amount of polarized light was calculated using standard software in the art. In this example of the method according to the present invention, molecules assessed for ability to inhibit or disrupt complexing between trimers and a labeled HR2 peptide (e.g., SEQ ID NO:33) comprised either of two HR2 peptides.

## HR2 peptide A: HR2 peptide, derived from the HR2 region of HIV-1 gp41; also used labeled as binding partner (WMEWDREINNYTSLIHSLIEESQNQQEKNEQELLEL)
HIV-1
  Antiviral activity against HIV-1 IC50: 0.002 µg/mL
  Antiviral activity against HIV-1 IC90: 0.072 µg/mL
[1]
  IC50: 68 nM
